What all share (type): biochemical
Assay [1] deals with T1, CYP3A4 (Homo sapiens, UniProt P08684). The assay is described as follows: Determination of compound Kiapp against recombinant CYP3A4 enzyme (BFC fluorescent substrate). An outline of the steps:
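Recombinant CYP3A4 (5.5 or 8 nM, with or without b5 depending on source) pre-incubated with inhibitor ≥30 min at room temperature in 100 mM sodium phosphate pH 7.0, 5 mM TCEP, 2% DMF. Reaction started with 200 uM NADPH and 5 uM BFC; initial fluorescence rates over 5 min fitted to Morrison tight-binding (non-partial) or Szedlacsek (partial) equations for Kiapp.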

The target of assay [2] is T1, CYP3A4. The assay is described as follows: Determination of IC50 against CYP3A4 by measurement of inhibition of midazolam metabolism (human liver microsomes, 1-hydroxymidazolam by LC-MS/MS). Further details: 0.1 mg/mL human liver microsomes. The settings on record: 2 μM midazolam, 0.1 mg/mL human liver microsomes. An outline of the steps: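 Human liver microsomes (0.1 mg/mL) incubated 8 min with 2 μM midazolam and 1 mM NADPH in 100 mM potassium phosphate, pH 7.4. 1-Hydroxymidazolam quantified by LC-MS/MS (MRM) as peak area ratio to internal standard against a metabolite standard curve.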
For orientation: Liver microsomes are a subcellular fraction often used to study metabolism.

Assay [3] concerns the target T1, CYP3A4. The assay is described as follows: Determination of IC50 against CYP3A4 by measurement of inhibition of testosterone metabolism (human liver microsomes, 6-β-OH-testosterone by LC-MS/MS). Further details: 0.1 mg/mL human liver microsomes. The conditions noted are these: read-out: IC50 (Testo.). In short, it runs like this:
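Human liver microsomes (0.1 mg/mL) incubated with 25 μM testosterone and 1 mM NADPH in 100 mM potassium phosphate, pH 7.4, for eight minutes. 6-β-OH-testosterone measured by LC-MS/MS in MRM mode against an internal standard and quantified from a metabolite standard curve.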

Setting [4] is: Baculo. enzyme preparation, read-out: Kiapp (BFC, Baculo.).
[5] abbreviates: Super. enzyme preparation, read-out: Kiapp (BFC, Super.).

Read-outs that look alike come from different tables or passages of the source.

T1 sequence (P08684 whole entry): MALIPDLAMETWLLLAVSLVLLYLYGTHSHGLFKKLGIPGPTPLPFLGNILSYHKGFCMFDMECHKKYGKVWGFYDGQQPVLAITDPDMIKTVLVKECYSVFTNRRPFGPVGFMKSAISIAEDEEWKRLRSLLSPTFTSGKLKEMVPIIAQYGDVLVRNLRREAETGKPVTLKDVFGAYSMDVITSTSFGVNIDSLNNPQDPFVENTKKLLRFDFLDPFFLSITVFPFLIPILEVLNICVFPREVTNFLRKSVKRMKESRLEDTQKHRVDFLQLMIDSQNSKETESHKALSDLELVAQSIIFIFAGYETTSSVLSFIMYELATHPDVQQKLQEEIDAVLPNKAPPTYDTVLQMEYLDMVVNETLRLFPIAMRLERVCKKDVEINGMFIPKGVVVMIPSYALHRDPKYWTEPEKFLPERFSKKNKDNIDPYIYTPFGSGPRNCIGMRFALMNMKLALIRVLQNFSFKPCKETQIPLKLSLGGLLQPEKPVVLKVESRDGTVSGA

Usually IC50 stands for the concentration at which inhibition is half-maximal. As for `COc1cncc(NS(=O)(=O)c2ccccc2C(=O)NCCOc2ccccc2)c1` [Example 238, 2-{[(5-methoxypyridin-3-yl)amino]sulfonyl}-N-(2-phenoxyethyl)benzamide], the Ki came to 230 nM at CYP3A4 [1] (setting [4]) and 18 nM at CYP3A4 [1] (setting [5]). The IC50 at CYP3A4 [2] came out at 17 nM; at CYP3A4 [3], 31 nM.
As for `COCCNC(=O)c1ccccc1S(=O)(=O)Nc1cncc(OC)c1` [Example 239, N-(2-methoxyethyl)-2-{[(5-methoxypyridin-3-yl)amino]sulfonyl}benzamide], the Ki at CYP3A4 [1] (setting [4]) was determined as 849 nM; on CYP3A4 [1] (setting [5]) it was 191 nM. For the same molecule, the IC50 on CYP3A4 [2] was found to be 163 nM; on CYP3A4 [3], 301 nM.
On the same counts, the results for `COc1cncc(NS(=O)(=O)c2ccccc2C(=O)NCCc2ccccc2Cl)c1` [Example 240, N-[2-(2-chlorophenyl)ethyl]-2-{[(5-methoxypyridin-3-yl)amino]sulfonyl}benzamide] are 22 nM, 3.2 nM, 4 nM and 9 nM.
`COc1cncc(NS(=O)(=O)c2ccccc2C(=O)NCCOC(C)C)c1` [Example 241, N-(2-isopropoxyethyl)-2-{[(5-methoxypyridin-3-yl)amino]sulfonyl}benzamide]: the Ki is 751 nM on CYP3A4 [1] (setting [4]) and 97 nM at CYP3A4 [1] (setting [5]). Also, the IC50 was determined as 77 nM on CYP3A4 [2] and 150 nM on CYP3A4 [3].
On to `COc1cncc(NS(=O)(=O)c2ccc(OCCN3CCNCC3)cc2C(=O)N(C)C(C)C)c1` [Example 242, N-isopropyl-2-{[(5-methoxypyridin-3-yl)amino]sulfonyl}-N-methyl-5-(2-piperazin-1-ylethoxy)benzamide], for which the Ki on CYP3A4 [1] (setting [4]) was 246 nM; at CYP3A4 [1] (setting [5]), 200 nM. The IC50 is 254 nM at CYP3A4 [2] and 289 nM on CYP3A4 [3].
`COc1cncc(NS(=O)(=O)c2ccc(OC3CCNCC3)cc2C(=O)N(C)C(C)C)c1` [Example 243, N-isopropyl-2-{[(5-methoxypyridin-3-yl)amino]sulfonyl}-N-methyl-5-(piperidin-4-yloxy)benzamide]: the figures for the Ki on CYP3A4 [1] (setting [4]) and at CYP3A4 [1] (setting [5]) were 28.4 nM and 85.8 nM, respectively. For the same molecule, the results for the IC50 at CYP3A4 [2] and at CYP3A4 [3] were 69 nM and 264 nM, respectively.
Take `COCCN(C(=O)c1ccccc1S(=O)(=O)Nc1cncc(OC)c1)C(C)C` [Example 244, N-isopropyl-N-(2-methoxyethyl)-2-{[(5-methoxypyridin-3-yl)amino]sulfonyl}benzamide]: the Ki at CYP3A4 [1] (setting [4]) is 45.6 nM; at CYP3A4 [1] (setting [5]) it was 26.8 nM. The IC50 on CYP3A4 [2] was below 16 nM; at CYP3A4 [3], 52 nM.
For the molecule `CCCN(C)C(=O)c1ccccc1S(=O)(=O)Nc1cncc(OC)c1` [Example 245, 2-{[(5-methoxypyridin-3-yl)amino]sulfonyl}-N-methyl-N-propylbenzamide], the Ki came to 164 nM on CYP3A4 [1] (setting [4]) and 18.7 nM at CYP3A4 [1] (setting [5]). The figures for the IC50 on CYP3A4 [2] and on CYP3A4 [3] were 29 nM and 63 nM, respectively.
As to `CCCN(CCOC)C(=O)c1ccccc1S(=O)(=O)Nc1cncc(OC)c1` [Example 246, N-(2-methoxyethyl)-2-{[(5-methoxypyridin-3-yl)amino]sulfonyl}-N-propylbenzamide], the Ki at CYP3A4 [1] (setting [4]) came to 50.3 nM; on CYP3A4 [1] (setting [5]), 18.5 nM. In addition, the IC50 at CYP3A4 [2] stood at 36 nM; at CYP3A4 [3] it was 72 nM.
As to `COc1cncc(NS(=O)(=O)c2ccc(OCCN3CCOCC3)cc2C(=O)N(C)C(C)C)c1` [Example 247, N-isopropyl-2-{[(5-methoxypyridin-3-yl)amino]sulfonyl}-N-methyl-5-(2-morpholin-4-ylethoxy)benzamide], the Ki on CYP3A4 [1] (setting [4]) came to 48.4 nM; at CYP3A4 [1] (setting [5]), 88.9 nM. Also, the IC50 on CYP3A4 [2] turned out to be 54 nM; at CYP3A4 [3], 108 nM.
On to `COc1cncc(NS(=O)(=O)c2ccc(OCCCN(C)C)cc2C(=O)N(C)C(C)C)c1` [Example 248, 5-[3-(dimethylamino)propoxy]-N-isopropyl-2-{[(5-methoxypyridin-3-yl)amino]sulfonyl}-N-methylbenzamide], for which the Ki turned out to be 439 nM on CYP3A4 [1] (setting [4]) and 193 nM on CYP3A4 [1] (setting [5]). The results for the IC50 on CYP3A4 [2] and at CYP3A4 [3] were 108 nM and 235 nM, respectively.
Consider `CCOc1ccncc1NS(=O)(=O)c1ccccc1C(=O)NC(C)(C)C` [Example 249, N-(tert-butyl)-2-{[(4-ethoxy-pyridin-3-yl)amino]sulfonyl} benzamide], for which the Ki came to 60.1 nM at CYP3A4 [1] (setting [4]) and 37.7 nM on CYP3A4 [1] (setting [5]). Moreover, the IC50 was 28.5 nM at CYP3A4 [2] and 45 nM at CYP3A4 [3].
Consider `CCOc1ccncc1NS(=O)(=O)c1ccccc1C(=O)NCc1ccc(F)c(C(F)(F)F)c1` [Example 250, 2-{[(4-ethoxypyridin-3-yl)amino]sulfonyl}-N-[4-fluoro-3-(trifluoromethyl)benzyl]benzamide], for which the Ki at CYP3A4 [1] (setting [4]) was 4.3 nM; on CYP3A4 [1] (setting [5]), 3.14 nM. Besides, the IC50 worked out at 10 nM at CYP3A4 [2] and 7 nM at CYP3A4 [3].
Turning to `CCOc1ccncc1NS(=O)(=O)c1ccccc1C(=O)N(C)Cc1ccc(F)c(F)c1` [Example 251, N-(3,4-difluorobenzyl)-2-{[(4-ethoxypyridin-3-yl)amino]sulfonyl}-N-methylbenzamide], the Ki at CYP3A4 [1] (setting [4]) turned out to be 8.6 nM; at CYP3A4 [1] (setting [5]), 5.31 nM. The IC50 came to 10 nM on CYP3A4 [2] and 12 nM at CYP3A4 [3].
In the case of `CCOc1ccncc1NS(=O)(=O)c1ccccc1C(=O)NCc1ccc(F)c(F)c1` [Example 252, N-(3,4-difluorobenzyl)-2-{[(4-ethoxypyridin-3-yl)amino]sulfonyl}benzamide], the figures for the Ki at CYP3A4 [1] (setting [4]) and on CYP3A4 [1] (setting [5]) were 17.1 nM and 5.41 nM, respectively. Moreover, the IC50 at CYP3A4 [2] and at CYP3A4 [3] was 9 nM throughout.
For `COc1cncc(NS(=O)(=O)c2ccc(OCCN3CCNCC3)cc2C(=O)NCc2ccc(F)cc2)c1` [Example 253, N-(4-fluorobenzyl)-2-{[(5-methoxypyridin-3-yl)amino]sulfonyl}-5-(2-piperazin-1-ylethoxy)benzamide], the results for the Ki at CYP3A4 [1] (setting [4]) and at CYP3A4 [1] (setting [5]) were 203 nM and 35.2 nM, respectively. The IC50 at CYP3A4 [2] came out at 50 nM; at CYP3A4 [3], 80 nM.
On the same counts, the results for `COc1ccncc1NS(=O)(=O)c1ccccc1C(=O)NC(C)(C)C` [Example 254, N-(tert-butyl)-2-{[(4-methoxypyridin-3-yl)amino]sulfonyl}benzamide] are 284 nM, 122 nM, 40 nM and 120 nM.
On the same counts, the results for `COc1ccncc1NS(=O)(=O)c1ccccc1C(=O)NCc1ccc(F)c(C(F)(F)F)c1` [Example 255, N-[4-fluoro-3-(trifluoromethyl)benzyl]-2-{[(4-methoxypyridin-3-yl)amino]sulfonyl}benzamide] are 22.7 nM, 4.06 nM, 7 nM and 9 nM.
On to `COc1ccncc1NS(=O)(=O)c1ccccc1C(=O)N(C)Cc1ccc(F)c(F)c1` [Example 256, N-(3,4-difluorobenzyl)-2-{[(4-methoxypyridin-3-yl)amino]sulfonyl}-N-methylbenzamide], for which the Ki at CYP3A4 [1] (setting [4]) was 30.2 nM; on CYP3A4 [1] (setting [5]), 5.25 nM. Moreover, the IC50 on CYP3A4 [2] worked out at 14.5 nM; on CYP3A4 [3] it was 16 nM.
On to `COc1ccncc1NS(=O)(=O)c1ccccc1C(=O)NCc1ccc(F)c(F)c1` [Example 257, N-(3,4-difluorobenzyl)-2-{[(4-methoxypyridin-3-yl)amino]sulfonyl}benzamide], for which the Ki on CYP3A4 [1] (setting [4]) came to 101 nM; at CYP3A4 [1] (setting [5]) it was 14.1 nM. Besides, the IC50 on CYP3A4 [2] came out at 15 nM; at CYP3A4 [3], 14 nM.
Consider `COc1cncc(NS(=O)(=O)c2ccccc2C(=O)NCCc2ccccc2F)c1` [Example 258, N-[2-(2-fluorophenyl)ethyl]-2-{[(5-methoxypyridin-3-yl)amino]sulfonyl}benzamide], for which the Ki amounted to 50.9 nM on CYP3A4 [1] (setting [4]) and 6.49 nM at CYP3A4 [1] (setting [5]). Besides, the IC50 at CYP3A4 [2] was 6 nM; at CYP3A4 [3] it was 11 nM.
Regarding `Cc1ccncc1NS(=O)(=O)c1ccccc1C(=O)NCc1ccc(F)c(F)c1` [Example 259, N-(3,4-difluorobenzyl)-2-{[(4-methylpyridin-3-yl)amino]sulfonyl}benzamide], the Ki on CYP3A4 [1] (setting [4]) is 135 nM; at CYP3A4 [1] (setting [5]), 12.5 nM. In addition, the IC50 on CYP3A4 [2] and at CYP3A4 [3] was 15 nM throughout.
As for `CCCCNC(=O)c1ccccc1S(=O)(=O)Nc1cnccc1C` [Example 260, N-butyl-2-{[(4-methylpyridin-3-yl)amino]sulfonyl}benzamide], the figures for the Ki on CYP3A4 [1] (setting [4]) and on CYP3A4 [1] (setting [5]) were 485 nM and 71.5 nM, respectively. Also, the IC50 at CYP3A4 [2] was determined as 47 nM; on CYP3A4 [3], 65 nM.
For the molecule `COCCNC(=O)c1ccccc1S(=O)(=O)Nc1cccnc1` [Example 261, N-(2-methoxyethyl)-2-[(pyridin-3-ylamino)sulfonyl]benzamide], the Ki was above 1000 nM on CYP3A4 [1] (setting [4]) and 453 nM on CYP3A4 [1] (setting [5]). For the same molecule, the results for the IC50 on CYP3A4 [2] and at CYP3A4 [3] were 256 nM and 627 nM, respectively.
With `COc1cncc(NS(=O)(=O)c2ccccc2C(=O)NCc2ccc(F)c(Cl)c2)c1` [Example 262, N-(3-chloro-4-fluorobenzyl)-2-{[(5-methoxypyridin-3-yl)amino]sulfonyl}benzamide], the Ki at CYP3A4 [1] (setting [4]) is 10.2 nM; at CYP3A4 [1] (setting [5]), 1.63 nM. The IC50 on CYP3A4 [2] came to 5 nM; on CYP3A4 [3], 7.5 nM.

Values taken from patent US7868026B2, “Therapeutic compounds” (Pfizer Inc., priority 2005, dated 2011).
